In patent publication US10047051B2, “Substituted pyridines and method of use” (AbbVie S.á{acute over (.)}r.l., priority 2015, dated 2018):

How the values were obtained:
Assay type in all cases: cell-based
[1] = molecular target: T1, CFTR ΔF508 mutant (Homo sapiens, UniProt P13569, DEL508-508); experiment: YFP-halide influx assay for the CFTR-ΔF508 mutation (CFBE41o- cells); settings: forskolin 10.67 μM; for EC50: from (1−F/F0) vs concentration plot
T1 construct: expressed in transfected cells; host or cells: CFBE41o- cells, adenoviral transduction
T1 sequence (P13569 with tags, fused parts or gaps DEL508-508): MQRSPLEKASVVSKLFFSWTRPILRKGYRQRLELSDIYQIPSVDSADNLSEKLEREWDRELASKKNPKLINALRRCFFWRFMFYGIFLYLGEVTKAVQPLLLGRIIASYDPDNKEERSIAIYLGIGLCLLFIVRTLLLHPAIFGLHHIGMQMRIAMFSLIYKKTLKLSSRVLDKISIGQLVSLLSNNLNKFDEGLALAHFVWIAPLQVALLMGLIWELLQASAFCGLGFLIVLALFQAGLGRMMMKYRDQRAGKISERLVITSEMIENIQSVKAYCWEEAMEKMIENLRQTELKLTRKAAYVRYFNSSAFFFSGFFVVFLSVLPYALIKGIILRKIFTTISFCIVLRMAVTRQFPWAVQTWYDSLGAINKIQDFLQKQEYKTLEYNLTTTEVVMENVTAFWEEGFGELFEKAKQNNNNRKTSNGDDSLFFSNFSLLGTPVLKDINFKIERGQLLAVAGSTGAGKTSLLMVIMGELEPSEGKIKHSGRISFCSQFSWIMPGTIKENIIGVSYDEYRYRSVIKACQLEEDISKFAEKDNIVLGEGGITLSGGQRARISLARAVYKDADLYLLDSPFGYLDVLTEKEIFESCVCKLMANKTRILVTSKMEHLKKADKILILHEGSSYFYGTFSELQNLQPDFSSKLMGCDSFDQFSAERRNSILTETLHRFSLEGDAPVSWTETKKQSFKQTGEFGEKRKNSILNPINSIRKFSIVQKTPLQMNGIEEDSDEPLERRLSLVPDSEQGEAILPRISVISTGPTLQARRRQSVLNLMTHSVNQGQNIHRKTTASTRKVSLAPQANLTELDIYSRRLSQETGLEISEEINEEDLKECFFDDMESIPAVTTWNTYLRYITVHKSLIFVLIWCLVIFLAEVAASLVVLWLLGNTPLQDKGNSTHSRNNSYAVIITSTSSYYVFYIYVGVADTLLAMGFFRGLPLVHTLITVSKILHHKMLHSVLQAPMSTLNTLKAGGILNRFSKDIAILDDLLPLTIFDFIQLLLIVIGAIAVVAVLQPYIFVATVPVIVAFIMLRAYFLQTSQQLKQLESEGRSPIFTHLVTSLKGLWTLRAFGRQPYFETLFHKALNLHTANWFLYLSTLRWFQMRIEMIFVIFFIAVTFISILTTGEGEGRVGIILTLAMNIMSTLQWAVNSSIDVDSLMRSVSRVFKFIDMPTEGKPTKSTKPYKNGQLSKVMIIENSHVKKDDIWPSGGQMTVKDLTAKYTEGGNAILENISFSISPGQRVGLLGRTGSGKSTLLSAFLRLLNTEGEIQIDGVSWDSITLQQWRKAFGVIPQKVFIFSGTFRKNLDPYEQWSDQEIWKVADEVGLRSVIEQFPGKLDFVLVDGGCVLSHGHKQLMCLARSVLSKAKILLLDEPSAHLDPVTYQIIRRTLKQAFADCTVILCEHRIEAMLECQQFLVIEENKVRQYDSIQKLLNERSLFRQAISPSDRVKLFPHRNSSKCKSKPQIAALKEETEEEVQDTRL
Procedure, shortened: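 CFBE41o- cells transduced with adenovirus expressing CFTR ΔF508 and halide-sensitive YFP H148Q/I152L/F47L, then held 24 h at 27° C or with a CFTR modulator 24 h at 37° C. Iodide-induced quench recorded 2 min; EC50 from (1−F/F0) at 36 s versus concentration.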

[2] = molecular target: T2, CFTR G551D mutant (Homo sapiens, UniProt P13569, G551D); experiment: YFP-halide influx assay for the CFTR-G551D mutation (HEK293 cells); settings: forskolin 10.67 μM
T2 construct: expressed in transfected cells; host or cells: HEK293 cells, reverse transfection with plasmids
T2 sequence (P13569 whole entry G551D): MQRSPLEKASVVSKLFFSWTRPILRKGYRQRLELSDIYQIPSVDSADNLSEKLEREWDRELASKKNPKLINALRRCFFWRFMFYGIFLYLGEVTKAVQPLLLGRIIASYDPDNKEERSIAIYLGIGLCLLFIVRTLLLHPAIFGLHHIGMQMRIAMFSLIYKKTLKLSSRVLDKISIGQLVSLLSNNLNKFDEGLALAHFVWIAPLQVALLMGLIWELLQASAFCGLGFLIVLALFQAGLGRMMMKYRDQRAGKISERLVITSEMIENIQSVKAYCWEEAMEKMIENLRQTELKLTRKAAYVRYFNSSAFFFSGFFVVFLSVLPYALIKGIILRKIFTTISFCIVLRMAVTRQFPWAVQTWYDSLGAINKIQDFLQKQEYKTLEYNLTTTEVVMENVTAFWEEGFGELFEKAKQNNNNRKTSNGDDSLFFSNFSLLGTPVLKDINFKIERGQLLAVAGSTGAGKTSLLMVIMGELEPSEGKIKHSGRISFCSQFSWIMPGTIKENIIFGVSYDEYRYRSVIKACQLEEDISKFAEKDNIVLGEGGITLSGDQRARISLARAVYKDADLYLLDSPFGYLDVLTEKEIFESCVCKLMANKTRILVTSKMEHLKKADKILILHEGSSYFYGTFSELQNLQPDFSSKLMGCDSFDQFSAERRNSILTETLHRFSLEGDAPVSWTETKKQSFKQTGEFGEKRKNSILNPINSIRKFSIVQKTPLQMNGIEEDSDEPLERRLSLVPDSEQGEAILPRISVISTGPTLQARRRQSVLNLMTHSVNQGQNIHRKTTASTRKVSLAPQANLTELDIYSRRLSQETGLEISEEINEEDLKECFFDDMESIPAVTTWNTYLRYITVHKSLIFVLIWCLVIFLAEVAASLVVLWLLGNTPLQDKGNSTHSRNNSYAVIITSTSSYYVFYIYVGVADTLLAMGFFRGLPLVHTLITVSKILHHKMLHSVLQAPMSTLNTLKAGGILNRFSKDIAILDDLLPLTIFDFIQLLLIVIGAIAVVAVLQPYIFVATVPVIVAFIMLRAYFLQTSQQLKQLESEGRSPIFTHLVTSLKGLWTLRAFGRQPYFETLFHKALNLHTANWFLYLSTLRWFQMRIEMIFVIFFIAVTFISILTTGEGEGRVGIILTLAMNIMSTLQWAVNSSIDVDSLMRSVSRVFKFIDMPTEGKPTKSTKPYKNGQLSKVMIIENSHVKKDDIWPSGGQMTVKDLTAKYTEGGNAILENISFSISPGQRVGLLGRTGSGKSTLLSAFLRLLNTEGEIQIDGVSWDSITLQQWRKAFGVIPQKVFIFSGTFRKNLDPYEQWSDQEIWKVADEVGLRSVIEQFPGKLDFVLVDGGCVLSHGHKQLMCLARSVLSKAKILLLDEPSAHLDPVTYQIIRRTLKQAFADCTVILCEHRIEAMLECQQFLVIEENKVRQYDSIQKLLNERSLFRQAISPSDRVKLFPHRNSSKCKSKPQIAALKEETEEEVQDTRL
Procedure, shortened: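 HEK293 cells reverse-transfected with CFTR G551D and halide-sensitive YFP (H148Q/I152L/F47L), expressed 24 h at 37 °C. YFP fluorescence quenching recorded for 7 s after I⁻ injection. Response = 1−F/F0; EC50 derived from 1−F/F0 vs compound concentration.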

[3] = molecular target: G551D CFTR (Homo sapiens, UniProt P13569, G551D); experiment: TECC assay, FRT-CFTR G551D protocol; settings: FRT cells stably transfected with G551D CFTR, high expression cells, increase in Isc after forskolin
Sequence of G551D CFTR (P13569 whole entry G551D): as above
Method: For G551D recordings, Fischer Rat Thyroid (FRT) cells stably transfected with G551D CFTR (a low CFTR-G551D expressing cell line and a high expressing CFTR-G551D cell line from Rosalind Franklin University of Medicine and Science, North Chicago, Ill.) are plated on Transwell® supports (Costar 6.5 mm diameter, 0.4 μm pore size). The cells are grown for 8-10 days under liquid-liquid interface conditions prior to electrophysiological readings. For electrophysiological recording, the FRT-G551D cells are mounted in the TECC heating plate for electrophysiological measurement and kept at 37° C. The epithelia are bathed in HEPES buffered culturing medium without FBS on both the basolateral and apical sides. Apical amiloride is used to inhibit the endogenous ENaC currents while forkolin is applied on both apical and basolateral side to stimulate CFTR. After forskolin triggering, compounds are added on both sides to test their potential for increasing CFTR gating. Measurements are done during a 10 minute timeframe with recordings every 2 minutes. The increase in Isc is used as a measure for the increased CFTR activity, EC50 values can be generated by measuring impact of different concentrations of compound on Isc on the cells, for this purpose each transwell is treated with a different compound concentration. Inh-172, an inhibitor specific for CFTR, is used to test the specificity of the tested compounds.

[4] = molecular target: T3, CFTR-G178R (Homo sapiens, UniProt P13569, G178R); experiment: YFP-halide influx assay for the CFTR-G178R
T3 construct: expressed in transfected cells
T3 sequence (P13569 whole entry G178R): as the sequence (P13569 whole entry G551D) above, with G178R, D551G counted along it
From the text: (§1) The YFP halide influx assay measured the functionality of the cystic fibrosis Transmembrane Conductance regulator (CFTR) channels. The assay was used to evaluate the capacity of compounds to increase the channel opening of existing mutant CFTR channels in the membrane. It makes use of the observation that the yellow fluorescent protein (YFP) variant YFP H148Q, I152L, F47L has its fluorescence substantially quenched by halide ions like Cl^− and I^− (Galietta, L. J. V., Haggie, P. M., Verkman, A. S., 2001. Green fluorescent protein-based halide indicators with improved chloride and iodide affinities. FEBS Lett. 499, 220-224. doi:10.1016/S0014-5793(01)02561-3).
(§2) For this purpose, HEK293-cells were seeded in 96 well plates. During seeding, the cells were reverse-transfected with plasmid vectors that direct the expression of the CFTR G551D mutant and of the YFP reporter. Cells were incubated at 37° C., 5% CO2 for 24 hours so as to allow for sufficient expression of the CFTR protein.
(§3) The I^−-induced quenching of fluorescence was recorded immediately after injection of I^− for 7 seconds. The capacity of a compound to increase the channel opening was directly correlated with the decrease in fluorescence, and was expressed as (1−(fluorescence after 7 seconds (F)/fluorescence before injection (F0))) and an EC50 was derived from a (1−F/F0) vs compound concentration plot.
(§4) Similar YHA assays were developed for other channel gating defective or channel conductance defective CFTR mutants to determine effect of compound on channel activity. Examples of mutants are G178R, G1349D, S549N, R117H, R334W. This assay is also used for additional class I CFTR mutants, including G542X, W1282X; class II mutants including N1303K, and for class III mutants including S1251N; or wild-type CFTR.

[5] = molecular target: T4, CFTR-G1349D (Homo sapiens, UniProt P13569, G1349D); experiment: YFP-halide influx assay for the CFTR-G1349D
T4 construct: expressed in transfected cells
T4 sequence (P13569 whole entry G1349D): as the sequence (P13569 whole entry G551D) above, with D551G, G1349D counted along it
From the text: as §1, §2, §3, §4

[6] = molecular target: T5, CFTR-S549N (Homo sapiens, UniProt P13569, S549N); experiment: YFP-halide influx assay for the CFTR-S549N; design: % Activation: concentration or dose not given beside the values
T5 construct: expressed in transfected cells
T5 sequence (P13569 whole entry S549N): as the sequence (P13569 whole entry G551D) above, with S549N, D551G counted along it
From the text: as §1, §2, §3, §4

[7] = molecular target: T6, CFTR-R117H (Homo sapiens, UniProt P13569, R117H); experiment: YFP-halide influx assay for the CFTR-R117H
T6 construct: expressed in transfected cells
T6 sequence (P13569 whole entry R117H): as the sequence (P13569 whole entry G551D) above, with R117H, D551G counted along it
From the text: as §1, §2, §3, §4

Structure (SMILES) | % Activation [1] [%] | EC50 [1] [nM] | % Activation [2] [%] | EC50 [2] [nM] | EC50 [3] [nM] | % Activation [4] [%] | EC50 [4] [nM] | % Activation [5] [%] | EC50 [5] [nM] | % Activation [6] [%] | EC50 [6] [nM] | % Activation [7] [%] | EC50 [7] [nM]
C[C@H](O)CNC(=O)c1ncc(S(=O)(=O)c2ccccc2OC(F)(F)F)cc1N [Compound 82, 3-amino-N-[(2S)-2-hydroxypropyl]-5-{[2-(trifluoromethoxy)phenyl]sulfonyl}pyridine-2-carboxamide] | 106.0 | 2.7 | 89.9 | 795 |  | 106.7 | 84.7 | 92.74 | 102 | 106.9 | 122 | 128.3 | 1050
Nc1cc(S(=O)(=O)c2ccc(OC(F)(F)F)cc2)cnc1C(=O)N1CC(O)(C2CC2)C1 [Compound 86, (3-amino-5-{[4-(trifluoromethoxy)phenyl]sulfonyl}pyridin-2-yl)(3-cyclopropyl-3-hydroxyazetidin-1-yl)methanone] | 122.0 | 3.1 | 69.3 | 332 |  | 78.08 | 32.5 | 85.79 | 55.3 | 98.52 | 139 | 89.91 | 59.5
Nc1cc(S(=O)(=O)c2ccc(F)cc2)cnc1C(=O)N1CC(O)(C(F)(F)F)C1 [Compound 176, {3-amino-5-[(4-fluorophenyl)sulfonyl]pyridin-2-yl}[3-hydroxy-3-(trifluoromethyl)azetidin-1-yl]methanone] | 93.4 | 1 | 46.0 | 69.4 |  | 79.1 | 12.7 | 72.8 | 29.5 | 92.0 | 25.7 | 111.0 | 22.7
Nc1cc(S(=O)(=O)c2ccc(C(F)(F)F)cc2)cnc1C(=O)N1CC(OCC(F)F)C1 [Compound 231, (3-amino-5-{[4-(trifluoromethyl)phenyl]sulfonyl}pyridin-2-yl)[3-(2,2-difluoroethoxy)azetidin-1-yl]methanone] | 103.3 | 52.3 | 59.2 | 450 |  | 98.4 | 305 | 83.9 | 129 | 88.2 | 256 | 91.3 | 442
Nc1cc(S(=O)(=O)c2ccc(C(F)(F)F)cc2)cnc1C(=O)NCC(F)(F)CO [Compound 241, 3-amino-N-(2,2-difluoro-3-hydroxypropyl)-5-{[4-(trifluoromethyl)phenyl]sulfonyl}pyridine-2-carboxamide] | 117.0 | 11.6 | 65.9 | 675 |  | 84.5 | 502 | 71.0 | 1110 | 90.7 | 691 | 103.0 | 608
Nc1cc(S(=O)(=O)c2ccc(F)cc2)c(-c2ccc(F)cc2)nc1C(=O)NC[C@@H](O)C(F)(F)F [Compound 259, 3-amino-6-(4-fluorophenyl)-5-[(4-fluorophenyl)sulfonyl]-N-[(2R)-3,3,3-trifluoro-2-hydroxypropyl]pyridine-2-carboxamide] | 102.5 | 4.3 | 92.6 | 1120 |  | 97.2 | 149 | 91.0 | 173 | 105.0 | 74.4 | 126.0 | 225
Nc1cc(S(=O)(=O)c2ccc(OC(F)(F)F)cc2)cnc1C(=O)Nc1cc[nH]n1 [Compound 291, 3-amino-N-(1H-pyrazol-3-yl)-5-{[4-(trifluoromethoxy)phenyl]sulfonyl}pyridine-2-carboxamide] | 98.2 | 5.5 | 44.7 | 242 |  | 79.3 | 109 | 79.8 | 149 | 75.6 | 92.1 | 74.2 | 155

More lines, in order of falling EC50 [1], values ahead:

% Activation [1] [%] | EC50 [1] [nM] | % Activation [2] [%] | EC50 [2] [nM] | EC50 [3] [nM] | % Activation [4] [%] | EC50 [4] [nM] | % Activation [5] [%] | EC50 [5] [nM] | % Activation [6] [%] | EC50 [6] [nM] | % Activation [7] [%] | EC50 [7] [nM] | Structure (SMILES)
103.4 | 36 | 51.8 | 3030 |  | 63.9 | 933 | 62.9 | 1350 | 55.9 | 401 | 92.1 | 765 | Nc1cc(S(=O)(=O)c2ccc(C(F)(F)F)cc2)cnc1C(=O)NCCO [Compound 217, 3-amino-N-(2-hydroxyethyl)-5-{[4-(trifluoromethyl)phenyl]sulfonyl}pyridine-2-carboxamide]
113.0 | 8.8 | 82.7 | 1640 | 1130 |  |  |  |  |  |  |  |  | Nc1cc(S(=O)(=O)c2ccc(OC(F)(F)F)cc2)cnc1C(=O)N[C@@H]1CCCC[C@H]1O (racemic) [Compound 17, rac-3-amino-N-[(1R,2R)-2-hydroxycyclohexyl]-5-{[4-(trifluoromethoxy)phenyl]sulfonyl}pyridine-2-carboxamide]
102.1 | 3.6 | 91.4 | 430 |  | 104.0 | 77.8 | 96.0 | 97.9 | 104.0 | 80.4 | 103.7 | 253 | COC[C@H](O)CNC(=O)c1ncc(S(=O)(=O)c2ccccc2OC(F)(F)F)cc1N [Compound 177, 3-amino-N-[(2R)-2-hydroxy-3-methoxypropyl]-5-{[2-(trifluoromethoxy)phenyl]sulfonyl}pyridine-2-carboxamide]
102.0 | 3.2 | 95.1 | 946 |  | 95.08 | 81.1 | 98.43 | 119 | 108.5 | 144 | 111.5 | 408 | COCC(O)CNC(=O)c1ncc(S(=O)(=O)c2ccccc2OC(F)(F)F)cc1N (centres unmarked) [Compound 80, 3-amino-N-(2-hydroxy-3-methoxypropyl)-5-{[2-(trifluoromethoxy)phenyl]sulfonyl}pyridine-2-carboxamide]
